According to US5731357A, “Immunomodulating active substance” (priority 1996, dated 1998):

Columns and labels:
[1] = tested on: graft-versus-host reaction (GVHR); experiment: Graft-versus-host reaction (GVHR); type: in vivo, mouse; settings: inosiplex 50.0 mg/kg
Experimental: (§1) In was dissolved in physiological solution and administered intraperitonerally at single doses together with antigen (sheep erytrcytes). Physiological solution was used as a control.
(§2) 3. DSR deermination using intravenoous immunization of mice with sheep erythrocytes administered at a dose of 2×10^5 cells. A resolution dose (1×10^8 cells in 0.04 ml of physiological solution) was injected in a hind footpad on the 5th day following immunization. Local inflammatory reaction was accounted for 24 hours later by the difference of mass between experimental (Re) and control (Rc) footpads. Reaction index (RI) was calculated for each mouse using the following formula: [formula] 4. GVHR determination. GVHR was induced by subcutaneous administration of 2×10^6 lymph node cells of […] (CBA) into right hind footpads of line F1 (CBA×C57B1/6) mice. Syngeneic lymphocytes were administered into left footpads. Cell count was determined in 5 ml of homogenate of left (control) and right (experiment) lymph nodes.

[2] = tested on: delayed skin reaction (DSR) to sheep erythrocytes; experiment: Delayed skin reaction (DSR); type: in vivo, mouse; settings: inosiplex 0.5, 5.0 and 50.0 mg/kg; mice of two lines; listed as In
Experimental: Experimental animals were intraperitoneally administered doses of 10.0 and 100.0 mg/kg in 0.1 ml in parallel to antigen administration; similar doses were given per os for 5 days before antigen administration.
as §1, §2

[3] = tested on: peritoneal macrophages; experiment: Phagocytic activity of peritoneal macrophages (opsonized sheep erythrocytes); type: in vivo, mouse; settings: for Stimulation degree (phagocytosis completion index increase): F1 mice
Experimental: 5. Estimation of phagocytic activity of peritoneal macrophages in mice, using JgG-opsonized sheep erythrocytes as the phagocytosis target /10/. Macrophages were attracted by 4-percent hydrolyzed starch solution. On the 3rd or 4th day, 0.5 ml of 5-percent sheep erythrocyte suspension were administered intraperitoneally. Following 60 minutes, exudate was removed. Non phagocytic sheep erythrocytes were subjected to lysis. Cell suspension was washed out. The preparation stained per Romanovsky-Gimze was determined for phagocyting cell percentage. To determine phagocytic index (PI1), the number of sheep erythroccytes captured was calculated spectrophotometrically /11/ by hemoglobin concentration using a calibration curve. Phagocytic index (P12) was determined again following 3 hours of incubation at 37° C. Phagocytosis completion index (PCI) was calculatd using the following formula: [formula] […] Then, for 15 minutes blood was taken from orbital sinus (0.020 ml) every 3 minutes and introduced into 1 ml of 3-percent acetic acid. Blood taking completed, animals were killed and body weight, liver and spleen weight were measured. Optical density of hemolyzed blood determined spectrophometrically at 610 nm wavelenght, and the f (D) t curve was plotted. Points lg (0) (zero time) and lg(10) (on the curve) were located. Phagocytosys constant (K) was calculated using the following formula: [formula] and then true phagocytosis index (α) was calculated using the following formula: [formula] 7. Complement activity determination using the titration technique employing rabbit erythrocytes treated with hyperimmune antiserum of guinea pig /12/ for direct activation route and employing rabbit erythrocytes treated with potassium iodide solution /13/ for alternative activation route. Activity was expressed in units 50-percent lysis per ml of serum (CH50).
The effect of In given at doses of 0.5, 5.0 and 50.0 mg/kg on phagocytosis index was studied in hybrid line F1 (CBA×C57B1/6) mice, with he drug administered intraperitonreallly 30 minutes before injection of the phagocytosis target, i.e. sheep erythrocytes.

[4] = tested on: ink clearance, phagocytic activity in vivo; experiment: Ink clearance (phagocytosis in vivo); set-up: species or system mouse; settings: In intraperitoneally 0.5, 5.0 and 50.0 mg/kg
Experimental: 5. Estimation of phagocytic activity of peritoneal macrophages in mice, using JgG-opsonized sheep erythrocytes as the phagocytosis target /10/. Macrophages were attracted by 4-percent hydrolyzed starch solution. On the 3rd or 4th day, 0.5 ml of 5-percent sheep erythrocyte suspension were administered intraperitoneally. Following 60 minutes, exudate was removed. Non phagocytic sheep erythrocytes were subjected to lysis. Cell suspension was washed out. The preparation stained per Romanovsky-Gimze was determined for phagocyting cell percentage. To determine phagocytic index (PI1), the number of sheep erythroccytes captured was calculated spectrophotometrically /11/ by hemoglobin concentration using a calibration curve. Phagocytic index (P12) was determined again following 3 hours of incubation at 37° C. Phagocytosis completion index (PCI) was calculatd using the following formula: [formula] […] Blood taking completed, animals were killed and body weight, liver and spleen weight were measured. Optical density of hemolyzed blood determined spectrophometrically at 610 nm wavelenght, and the f (D) t curve was plotted. […] Phagocytosys constant (K) was calculated using the following formula: [formula] and then true phagocytosis index (α) was calculated using the following formula: [formula] […]

[5] = tested on: hemagglutinin titers for sheep erythrocytes in mouse serum; experiment: Hemagglutinin (HA) titer for sheep erythrocytes in mouse serum; type: in vivo
[6] = tested on: antibody-forming cells in mouse spleen (sheep erythrocytes as antigen); experiment: Antibody-forming cell (AFC) count in mouse spleen, local hemolysis reaction (humoral immune response); type: in vivo; settings: for AFC stimulation degree: C57B1/6; for AFC count per 10^6 nucleated spleen cells: C57B1/6 males 20-22 g; for AFC stimulating effect: 50.0 mg/kg, low responsive line mice
[7] = third dose column (printed 5.0 mg/kg), 2 × 10^7 sheep erythrocytes

CC(=O)Nc1ccc(C(=O)O)cc1.CC(=O)Nc1ccc(C(=O)O)cc1.CC(=O)Nc1ccc(C(=O)O)cc1.CC(O)CN(C)C.CC(O)CN(C)C.CC(O)CN(C)C.O=c1[nH]cnc2c1ncn2[C@@H]1O[C@H](CO)[C@@H](O)[C@H]1O [Inosiplex]
GVHR (in words) [1]: slight inhibitory effect | DSR intensity (in words) [2]: no changes in the reaction intensity | Stimulation degree (phagocytosis completion index increase) ([3]; 5.0 mg/kg, intraperitoneal): 39% | Stimulation degree (phagocytosis completion index increase) ([3]; 50.0 mg/kg, intraperitoneal): 76% | phagocytosis and digesting ability of macrophages (in words) ([3]; common to inosplex and Rp): Stimulation of phagocytosis and digesting ability of macrophages | phagocytosis index (in words) ([3]; inosiplex 0.5 mg/kg, F1, intraperitoneal): no stimulation effect | stimulation of phagocytosis completion ([3]; intraperitoneal 5.0 and 50.0 mg/kg): 1.4-1.7 times | blood clearence rate (in words) [4]: no effect on blood clearence rate | capturing intensity of inert ink particles (in words) [4]: no changes in capturing intensity of inert ink particles | HA titer, 14th day after immunisation ([5]; 250.0 mg/kg, CBA males 20-22 g, n = 8, suboptimum sheep erythrocyte dose, P< 0.02): 8.5 log2 | stimulation of hemagglutinin production (fold) ([5]; 250.0 mg/kg, line CBA): as much as two times | stimulation of hemagglutinin production (log2 of hemagglutinin titer) ([5]; 250.0 mg/kg, line CBA): 1 log2 of hemagglutinin titer | effect on hemagglutinin titer (in words) ([5]; 0.5, 5.0 and 25.0 mg/kg, line CBA, 7th and 14th day, suboptimum immunisation): no stimulating effect | AFC stimulation degree ([6]; 0.5 mg/kg, 10^8 sheep erythrocytes (optimum)): 90% | AFC count per 10^6 nucleated spleen cells ([6]; 0.5 mg/kg, 2 × 10^7 sheep erythrocytes): 52(63'44) | AFC count per 10^6 nucleated spleen cells ([6]; 0.5 mg/kg, 10^8 sheep erythrocytes, p < 0.05): 158(186'134) | AFC stimulation degree ([6]; 5.0 mg/kg, 2 × 10^7 sheep erythrocytes (suboptimum)): 38% | AFC stimulation degree ([6]; 5.0 mg/kg, 10^8 sheep erythrocytes (optimum)): 82% | AFC count per 10^6 nucleated spleen cells ([6]; 5.0 mg/kg, 2 × 10^7 sheep erythrocytes): 117(149'98) | AFC count per 10^6 nucleated spleen cells ([6]; 5.0 mg/kg, 10^8 sheep erythrocytes, p < 0.05): 151(169'134) | AFC stimulating effect ([6]; optimum immunisation): 139% | AFC stimulating effect ([6]; suboptimum immunisation): 32% | stimulation of humoral immune response ([6]; 5.0 and 50.0 mg/kg, animals low responsive to antigen): 1.3-1.8 fold | antibody-forming cells in the spleen (in words) ([6]; common to inosplex and Rp): Stimulation of forming antibody-forming cells in the spleen | humoral immune reaction (in words) ([6]; strong-replied animals, optimal dose of antigen): Suppress of humoral immune reaction | AFC stimulation degree [6, 7]: 32% | AFC stimulation degree ([6]; third dose column (printed 5.0 mg/kg), 10^8 sheep erythrocytes): 139% | AFC count per 10^6 nucleated spleen cells [6, 7]: 112(141'89) | AFC count per 10^6 nucleated spleen cells ([6]; third dose column (printed 5.0 mg/kg), 10^8 sheep erythrocytes, p < 0.01): 199(245'162) | humoral immune reaction (in words) ([6]; weak-replied animals, and strong-replied mice with suboptimum dose of antigen): Stimulation of humoral immune reaction
